Patent US12077503B2, “Substituted cyclic amides and their use as herbicides” (FMC CORPORATION, priority 2015, dated 2024)

Columns and labels:
Assay type in all cases: in vivo
[1] = system: barnyardgrass (Echinochloa crus-galli); test: Test B flooded paddy test; settings: Flood, 250 g ai/ha; 0 to 100 scale where 0 is no effect and 100 is complete control; 13 to 15 d
Method in brief: (§1)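 Evaluation by eye, against controls, occurred 13–15 d post-treatment in a greenhouse, using a 0 (no effect) to 100 (complete control) scale. Application was into the paddy water, 3 cm deep over the soil, on 2-leaf plants.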

[2] = system: sedge, umbrella (small-flower umbrella sedge, Cyperus difformis); test: Test B flooded paddy test; settings: Flood, 250 g ai/ha; 0 to 100 scale where 0 is no effect and 100 is complete control; 13 to 15 d
Method in brief: as §1

[3] = system: ducksalad (Heteranthera limosa); test: Test B flooded paddy test; settings: Flood, 250 g ai/ha; 0 to 100 scale where 0 is no effect and 100 is complete control; 13 to 15 d
Method in brief: as §1

[4] = system: rice (Oryra sativa); test: Test B flooded paddy test; settings: Flood, 250 g ai/ha; 0 to 100 scale where 0 is no effect and 100 is complete control; 13 to 15 d
Method in brief: as §1

[5] = system: giant foxtail (Setaria faberii); test: Test A postemergence; settings: for Foxtail, Giant plant response rating: 125 g ai/ha, postemergence, visual injury rating on 0 to 100 scale (0 no effect, 100 complete control), approx. 10 d; for Plant response rating, Foxtail, Giant: Postemergence, 500 g ai/ha, 0 to 100 scale where 0 is no effect and 100 is complete control
Method in brief: (§2)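 Preemergence directed soil spray on seeded pots, or postemergence application to plants 2–10 cm, one- to two-leaf. Solvent mixture non-phytotoxic, with surfactant. Scored ~10 d later, visually, 0–100 vs untreated.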

[6] = system: ragweed (common ragweed, Ambrosia elatior); test: Test A postemergence; settings: for Ragweed plant response rating: 125 g ai/ha, postemergence, visual injury rating on 0 to 100 scale (0 no effect, 100 complete control), approx. 10 d; for Plant response rating, Ragweed: Postemergence, 500 g ai/ha, 0 to 100 scale where 0 is no effect and 100 is complete control
Method in brief: as §2

[7] = system: blackgrass (Alopecurus myosuroides); test: Test A postemergence; settings: for Blackgrass plant response rating: 125 g ai/ha, postemergence, visual injury rating on 0 to 100 scale (0 no effect, 100 complete control), approx. 10 d; for Plant response rating, Blackgrass: Postemergence, 500 g ai/ha, 0 to 100 scale where 0 is no effect and 100 is complete control
Method in brief: as §2

[8] = system: ryegrass, Italian (Italian ryegrass, Lolium multiflorum); test: Test A postemergence; settings: for Ryegrass, Italian plant response rating: 125 g ai/ha, postemergence, visual injury rating on 0 to 100 scale (0 no effect, 100 complete control), approx. 10 d; for Plant response rating, Ryegrass, Italian: Postemergence, 500 g ai/ha, 0 to 100 scale where 0 is no effect and 100 is complete control
Method in brief: as §2

[9] = system: barnyardgrass (Echinochloa crus-galli); test: Test A postemergence; settings: for Barnyardgrass plant response rating: 125 g ai/ha, postemergence, visual injury rating on 0 to 100 scale (0 no effect, 100 complete control), approx. 10 d; for Plant response rating, Barnyardgrass: Postemergence, 500 g ai/ha, 0 to 100 scale where 0 is no effect and 100 is complete control
Method in brief: as §2

[10] = system: Kochia (Kochia scoparia); test: Test A postemergence; settings: for Kochia plant response rating: 125 g ai/ha, postemergence, visual injury rating on 0 to 100 scale (0 no effect, 100 complete control), approx. 10 d; for Plant response rating, Kochia: Postemergence, 500 g ai/ha, 0 to 100 scale where 0 is no effect and 100 is complete control
Method in brief: as §2

[11] = system: wheat (Triticum aestivum); test: Test A postemergence; settings: for Wheat plant response rating: 125 g ai/ha, postemergence, visual injury rating on 0 to 100 scale (0 no effect, 100 complete control), approx. 10 d; for Plant response rating, Wheat: Postemergence, 500 g ai/ha, 0 to 100 scale where 0 is no effect and 100 is complete control
Method in brief: as §2

[12] = system: corn (Zea mays); test: Test A postemergence; settings: for Corn plant response rating: 125 g ai/ha, postemergence, visual injury rating on 0 to 100 scale (0 no effect, 100 complete control), approx. 10 d; for Plant response rating, Corn: Postemergence, 500 g ai/ha, 0 to 100 scale where 0 is no effect and 100 is complete control
Method in brief: as §2

[13] = system: Galium (catchweed bedstraw, Galium aparine); test: Test A postemergence; settings: for Galium plant response rating: 125 g ai/ha, postemergence, visual injury rating on 0 to 100 scale (0 no effect, 100 complete control), approx. 10 d; for Plant response rating, Galium: Postemergence, 500 g ai/ha, 0 to 100 scale where 0 is no effect and 100 is complete control
Method in brief: as §2

[14] = system: pigweed (Amaranthus retroflexus); test: Test A postemergence; settings: for Pigweed plant response rating: 125 g ai/ha, postemergence, visual injury rating on 0 to 100 scale (0 no effect, 100 complete control), approx. 10 d; for Plant response rating, Pigweed: Postemergence, 500 g ai/ha, 0 to 100 scale where 0 is no effect and 100 is complete control
Method in brief: as §2

[15] = system: giant foxtail (Setaria faberii); test: Test A preemergence; settings: Preemergence; for Plant response rating, Foxtail, Giant: 125 g ai/ha, visual injury after approximately 10 d, 0 to 100 scale where 0 is no effect and 100 is complete control; for Foxtail, Giant plant response rating (0 to 100 scale, 0 is no effect, 100 is complete control): 500 g ai/ha, visual injury approx. 10 d
Method in brief: as §2

[16] = system: ragweed (common ragweed, Ambrosia elatior); test: Test A preemergence; settings: Preemergence; for Plant response rating, Ragweed: 125 g ai/ha, visual injury after approximately 10 d, 0 to 100 scale where 0 is no effect and 100 is complete control; for Ragweed plant response rating (0 to 100 scale, 0 is no effect, 100 is complete control): 500 g ai/ha, visual injury approx. 10 d
Method in brief: as §2

[17] = system: ryegrass, Italian (Italian ryegrass, Lolium multiflorum); test: Test A preemergence; settings: Preemergence; for Plant response rating, Ryegrass, Italian: 125 g ai/ha, visual injury after approximately 10 d, 0 to 100 scale where 0 is no effect and 100 is complete control; for Ryegrass, Italian plant response rating (0 to 100 scale, 0 is no effect, 100 is complete control): 500 g ai/ha, visual injury approx. 10 d
Method in brief: as §2

[18] = system: barnyardgrass (Echinochloa crus-galli); test: Test A preemergence; settings: Preemergence; for Plant response rating, Barnyardgrass: 125 g ai/ha, visual injury after approximately 10 d, 0 to 100 scale where 0 is no effect and 100 is complete control; for Barnyardgrass plant response rating (0 to 100 scale, 0 is no effect, 100 is complete control): 500 g ai/ha, visual injury approx. 10 d
Method in brief: as §2

[19] = system: Kochia (Kochia scoparia); test: Test A preemergence; settings: Preemergence; for Plant response rating, Kochia: 125 g ai/ha, visual injury after approximately 10 d, 0 to 100 scale where 0 is no effect and 100 is complete control; for Kochia plant response rating (0 to 100 scale, 0 is no effect, 100 is complete control): 500 g ai/ha, visual injury approx. 10 d
Method in brief: as §2

[20] = system: pigweed (Amaranthus retroflexus); test: Test A preemergence; settings: Preemergence; for Plant response rating, Pigweed: 125 g ai/ha, visual injury after approximately 10 d, 0 to 100 scale where 0 is no effect and 100 is complete control; for Pigweed plant response rating (0 to 100 scale, 0 is no effect, 100 is complete control): 500 g ai/ha, visual injury approx. 10 d

O=C1NCC(c2cc(F)cc(C(F)(F)F)c2)C1C(=O)Nc1ccc(F)cc1F (stereo not drawn) [Compound 490]
Plant response rating, Barnyardgrass [1]: 50 | Plant response rating, Sedge, Umbrella [2]: 0 | Plant response rating, Ducksalad [3]: 85 | Plant response rating, Rice [4]: 30 | Foxtail, Giant plant response rating [5]: 80 | Plant response rating, Foxtail, Giant [5]: 80 | Ragweed plant response rating [6]: 0 | Plant response rating, Ragweed [6]: 20 | Blackgrass plant response rating [7]: 20 | Plant response rating, Blackgrass [7]: 40 | Ryegrass, Italian plant response rating [8]: 0 | Plant response rating, Ryegrass, Italian [8]: 30 | Barnyardgrass plant response rating [9]: 80 | Plant response rating, Barnyardgrass [9]: 80 | Kochia plant response rating [10]: 0 | Plant response rating, Kochia [10]: 20 | Wheat plant response rating [11]: 30 | Plant response rating, Wheat [11]: 50 | Corn plant response rating [12]: 80 | Plant response rating, Corn [12]: 80 | Galium plant response rating [13]: 20 | Plant response rating, Galium [13]: 40 | Pigweed plant response rating [14]: 0 | Plant response rating, Pigweed [14]: 20 | Plant response rating, Foxtail, Giant [15]: 90 | Foxtail, Giant plant response rating (0 to 100 scale, 0 is no effect, 100 is complete control) [15]: 90 | Plant response rating, Ragweed [16]: 0 | Ragweed plant response rating (0 to 100 scale, 0 is no effect, 100 is complete control) [16]: 0 | Plant response rating, Ryegrass, Italian [17]: 20 | Ryegrass, Italian plant response rating (0 to 100 scale, 0 is no effect, 100 is complete control) [17]: 50 | Plant response rating, Barnyardgrass [18]: 80 | Barnyardgrass plant response rating (0 to 100 scale, 0 is no effect, 100 is complete control) [18]: 90 | Plant response rating, Kochia [19]: 0 | Kochia plant response rating (0 to 100 scale, 0 is no effect, 100 is complete control) [19]: 20 | Plant response rating, Pigweed [20]: 0 | Pigweed plant response rating (0 to 100 scale, 0 is no effect, 100 is complete control) [20]: 0

O=C1NCC(c2c(F)cccc2F)C1C(=O)Nc1ccccc1F (racemic) [Compound 515]
Plant response rating, Barnyardgrass [1]: 0 | Plant response rating, Sedge, Umbrella [2]: 0 | Plant response rating, Ducksalad [3]: 0 | Plant response rating, Rice [4]: 0 | Foxtail, Giant plant response rating [5]: 0 | Plant response rating, Foxtail, Giant [5]: 0 | Ragweed plant response rating [6]: 0 | Plant response rating, Ragweed [6]: 0 | Blackgrass plant response rating [7]: 0 | Plant response rating, Blackgrass [7]: 0 | Ryegrass, Italian plant response rating [8]: 0 | Plant response rating, Ryegrass, Italian [8]: 0 | Barnyardgrass plant response rating [9]: 0 | Plant response rating, Barnyardgrass [9]: 20 | Kochia plant response rating [10]: 0 | Plant response rating, Kochia [10]: 0 | Wheat plant response rating [11]: 0 | Plant response rating, Wheat [11]: 0 | Corn plant response rating [12]: 0 | Plant response rating, Corn [12]: 0 | Galium plant response rating [13]: 0 | Plant response rating, Galium [13]: 0 | Pigweed plant response rating [14]: 0 | Plant response rating, Pigweed [14]: 0 | Plant response rating, Foxtail, Giant [15]: 0 | Foxtail, Giant plant response rating (0 to 100 scale, 0 is no effect, 100 is complete control) [15]: 70 | Plant response rating, Ragweed [16]: 0 | Ragweed plant response rating (0 to 100 scale, 0 is no effect, 100 is complete control) [16]: 0 | Plant response rating, Ryegrass, Italian [17]: 0 | Ryegrass, Italian plant response rating (0 to 100 scale, 0 is no effect, 100 is complete control) [17]: 0 | Plant response rating, Barnyardgrass [18]: 0 | Barnyardgrass plant response rating (0 to 100 scale, 0 is no effect, 100 is complete control) [18]: 0 | Plant response rating, Kochia [19]: 0 | Kochia plant response rating (0 to 100 scale, 0 is no effect, 100 is complete control) [19]: 0 | Plant response rating, Pigweed [20]: 0 | Pigweed plant response rating (0 to 100 scale, 0 is no effect, 100 is complete control) [20]: 0
